Source: patent publication US12723063B2, “GIPR-agonist compounds” (Eli Lilly and Company, priority 2019, dated 2026)
*1 amine or outer side, *2 acyl side, *3 side chain or, on linkers, in order; H or OH if unused. Where a SMILES comes first, the peptide text is derived from it. Side-chain parts run from the residue outwards. [ ]: non-standard residue; d: D form. The star is where a group is joined. C20 diacid = O=C(O)CCCCCCCCCCCCCCCCCCC(=O)*; C18 diacid = O=C(O)CCCCCCCCCCCCCCCCC(=O)*; αMePhe(2-F) = C[C@](N)(Cc1ccccc1F)C(=O)O; γGlu = O=C(O)[C@H](CCC(=O)[*:2])N[*:1]; 4Pal = N[C@@H](Cc1ccncc1)C(=O)O; αMeL = CC(C)C[C@](C)(N)C(=O)O; Orn = NCCC[C@H](N)C(=O)O; AEEA = NCCOCCOCC(=O)O; Aib = CC(C)(N)C(=O)O

Key:
Assay in all cases: cAMP functional assay (HTRF) in HEK293 cells in presence of 0.1% casein
Format in all cases: cell-based
[1] = molecular target: T1, human GLP-1 receptor (GLP-1R) (Homo sapiens, UniProt P43220); settings: HEK293 cells expressing human GLP-1R, geometric mean, read-out: hGLP1R cAMP Rel EC50 nM (SEM, n)
T1 construct: expressed in transfected cells; host or cells: HEK293
T1 sequence (P43220 24-463): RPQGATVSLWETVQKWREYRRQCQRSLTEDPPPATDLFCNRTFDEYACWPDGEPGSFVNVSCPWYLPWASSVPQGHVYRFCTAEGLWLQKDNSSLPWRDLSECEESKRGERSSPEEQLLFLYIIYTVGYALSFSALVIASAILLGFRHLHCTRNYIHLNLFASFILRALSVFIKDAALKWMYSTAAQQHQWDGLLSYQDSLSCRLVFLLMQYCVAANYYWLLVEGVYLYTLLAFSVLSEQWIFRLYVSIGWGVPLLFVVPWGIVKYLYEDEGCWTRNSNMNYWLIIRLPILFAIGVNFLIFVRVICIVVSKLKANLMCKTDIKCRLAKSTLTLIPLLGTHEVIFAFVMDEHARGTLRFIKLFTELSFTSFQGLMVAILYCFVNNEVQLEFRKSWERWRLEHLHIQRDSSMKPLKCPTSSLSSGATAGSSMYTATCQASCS

[2] = molecular target: T2, human glucagon receptor (GcgR) (Homo sapiens, UniProt P47871); settings: HEK293 cells expressing human GcgR, geometric mean, read-out: hGcgR cAMP Rel EC50 nM (SEM, n)
T2 construct: expressed in transfected cells; host or cells: HEK293
T2 sequence (P47871 26-477): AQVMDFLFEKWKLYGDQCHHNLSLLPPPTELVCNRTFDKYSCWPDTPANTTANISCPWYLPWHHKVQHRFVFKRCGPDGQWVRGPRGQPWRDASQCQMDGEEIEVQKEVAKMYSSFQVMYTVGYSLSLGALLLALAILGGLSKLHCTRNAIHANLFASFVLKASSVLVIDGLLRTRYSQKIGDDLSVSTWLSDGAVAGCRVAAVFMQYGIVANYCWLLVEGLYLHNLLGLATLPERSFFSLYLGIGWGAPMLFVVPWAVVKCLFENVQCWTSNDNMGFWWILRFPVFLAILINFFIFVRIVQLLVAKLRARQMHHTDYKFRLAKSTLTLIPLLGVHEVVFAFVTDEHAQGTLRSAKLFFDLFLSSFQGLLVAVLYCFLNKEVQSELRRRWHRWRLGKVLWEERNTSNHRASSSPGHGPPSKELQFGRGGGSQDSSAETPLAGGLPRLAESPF

[3] = molecular target: T3, human glucose-dependent insulinotropic peptide receptor (GIPR) (Homo sapiens, UniProt P48546); settings: HEK293 cells expressing human GIPR, geometric mean, read-out: hGIPR cAMP Rel EC50 nM (SEM, n)
T3 construct: expressed in transfected cells; host or cells: HEK293
T3 sequence (P48546 22-466): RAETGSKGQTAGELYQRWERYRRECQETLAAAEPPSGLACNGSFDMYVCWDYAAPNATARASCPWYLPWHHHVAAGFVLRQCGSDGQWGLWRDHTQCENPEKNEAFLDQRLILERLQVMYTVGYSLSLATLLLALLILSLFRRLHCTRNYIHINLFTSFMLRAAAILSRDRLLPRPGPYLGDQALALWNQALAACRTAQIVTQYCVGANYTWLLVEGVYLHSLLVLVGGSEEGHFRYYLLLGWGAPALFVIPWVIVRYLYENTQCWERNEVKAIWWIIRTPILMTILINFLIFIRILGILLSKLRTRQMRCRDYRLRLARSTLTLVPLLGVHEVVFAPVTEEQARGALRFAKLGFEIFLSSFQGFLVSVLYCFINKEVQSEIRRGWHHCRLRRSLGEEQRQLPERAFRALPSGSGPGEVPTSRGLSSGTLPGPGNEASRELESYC

Structure (SMILES)	EC50 [1] [nM]	EC50 [2] [nM]	EC50 [3] [nM]
CC[C@H](C)[C@H](NC(=O)[C@H](CO)NC(=O)[C@H](Cc1ccc(O)cc1)NC(=O)[C@H](CC(=O)O)NC(=O)[C@H](CO)NC(=O)[C@@H](NC(=O)[C@](C)(Cc1ccccc1F)NC(=O)[C@@H](NC(=O)CNC(=O)[C@H](CCC(=O)O)NC(=O)C(C)(C)NC(=O)[C@@H](N)Cc1ccc(O)cc1)[C@@H](C)O)[C@@H](C)CC)C(=O)N[C@@H](C)C(=O)N[C@@H](CC(C)C)C(=O)N[C@@H](CC(=O)O)C(=O)N[C@@H](CCCCN)C(=O)N[C@H](C(=O)N[C@@H](Cc1c[nH]cn1)C(=O)N[C@@H](CCC(N)=O)C(=O)NC(C)(C)C(=O)N[C@@H](CC(=O)O)C(=O)N[C@@H](Cc1ccccc1)C(=O)N[C@H](C(=O)N[C@@H](CCC(=O)O)C(=O)N[C@@H](Cc1ccncc1)C(=O)N[C@@H](CCCCNC(=O)COCCOCCNC(=O)COCCOCCNC(=O)CC[C@H](NC(=O)CCCCCCCCCCCCCCCCCCC(=O)O)C(=O)O)C(=O)N[C@@H](CC(C)C)C(=O)N[C@@H](CCC(=O)O)C(=O)N[C@@H](CCC(N)=O)C(=O)NCC(=O)N1CCC[C@H]1C(=O)N[C@@H](CO)C(=O)N[C@@H](CO)C(=O)NCC(=O)N[C@@H](C)C(=O)N1CCC[C@H]1C(=O)N1CCC[C@H]1C(=O)N1CCC[C@H]1C(=O)N[C@@H](CO)C(N)=O)C(C)C)[C@@H](C)CC [Example 114] (H-Y[Aib]EGT[αMePhe(2-F)]ISDYSIALDKIHQ[Aib]DFVE[4Pal]K([AEEA-AEEA-γGlu-C20 diacid])LEQGPSSGAPPPS-NH2)	> 5000	> 5000	0.0075
CC[C@H](C)[C@H](NC(=O)[C@H](Cc1ccccc1)NC(=O)[C@@H](NC(=O)CNC(=O)[C@H](CCC(=O)O)NC(=O)C(C)(C)NC(=O)[C@@H](N)Cc1ccc(O)cc1)[C@@H](C)O)C(=O)N[C@@H](CO)C(=O)N[C@@H](CC(=O)O)C(=O)N[C@@H](Cc1ccc(O)cc1)C(=O)N[C@@H](CO)C(=O)N[C@H](C(=O)N[C@@](C)(CC(C)C)C(=O)N[C@@H](CC(C)C)C(=O)N[C@@H](CC(=O)O)C(=O)N[C@@H](CCCN)C(=O)N[C@@H](CCCCNC(=O)COCCOCCNC(=O)COCCOCCNC(=O)CC[C@H](NC(=O)CCCCCCCCCCCCCCCCCCC(=O)O)C(=O)O)C(=O)N[C@@H](Cc1c[nH]cn1)C(=O)N[C@@H](CCC(N)=O)C(=O)NC(C)(C)C(=O)N[C@@H](CC(=O)O)C(=O)N[C@@H](Cc1ccccc1)C(=O)N[C@H](C(=O)N[C@@H](CCC(=O)O)C(=O)N[C@@H](Cc1ccncc1)C(=O)N[C@@H](CC(C)C)C(=O)N[C@@H](CC(C)C)C(=O)N[C@@H](CCC(=O)O)C(=O)N[C@@H](CCC(N)=O)C(=O)NCC(=O)N1CCC[C@H]1C(=O)N[C@@H](CO)C(=O)N[C@@H](CO)C(=O)NCC(=O)N[C@@H](C)C(=O)N1CCC[C@H]1C(=O)N1CCC[C@H]1C(=O)N1CCC[C@H]1C(=O)N[C@@H](CO)C(N)=O)C(C)C)[C@@H](C)CC [Example 81] (H-Y[Aib]EGTFISDYSI[αMeL]LD[Orn]K([AEEA-AEEA-γGlu-C20 diacid])HQ[Aib]DFVE[4Pal]LLEQGPSSGAPPPS-NH2)	> 5000	> 5000	0.0282
CC[C@H](C)[C@H](NC(=O)[C@H](Cc1ccccc1)NC(=O)[C@@H](NC(=O)CNC(=O)[C@H](CCC(=O)O)NC(=O)C(C)(C)NC(=O)[C@@H](N)Cc1ccc(O)cc1)[C@@H](C)O)C(=O)N[C@@H](CO)C(=O)N[C@@H](CC(=O)O)C(=O)N[C@@H](Cc1ccc(O)cc1)C(=O)N[C@@H](CO)C(=O)N[C@H](C(=O)NC(C)(C)C(=O)N[C@@H](CC(C)C)C(=O)N[C@@H](CC(=O)O)C(=O)N[C@@H](CCCCN)C(=O)N[C@@H](CCCCNC(=O)COCCOCCNC(=O)COCCOCCNC(=O)CC[C@H](NC(=O)CCCCCCCCCCCCCCCCC(=O)O)C(=O)O)C(=O)N[C@@H](Cc1c[nH]cn1)C(=O)N[C@@H](CCC(N)=O)C(=O)NC(C)(C)C(=O)N[C@@H](CC(=O)O)C(=O)N[C@@H](Cc1ccccc1)C(=O)N[C@H](C(=O)N[C@@H](CCC(=O)O)C(=O)N[C@@H](Cc1ccncc1)C(=O)N[C@@H](CC(C)C)C(=O)N[C@@H](CC(C)C)C(=O)N[C@@H](C)C(=O)NCC(=O)NCC(=O)N1CCC[C@H]1C(=O)N[C@@H](CO)C(=O)N[C@@H](CO)C(=O)NCC(=O)N[C@@H](C)C(=O)N1CCC[C@H]1C(=O)N1CCC[C@H]1C(=O)N1CCC[C@H]1C(=O)N[C@@H](CO)C(N)=O)C(C)C)[C@@H](C)CC [Example 24]	> 5000	> 5000	0.0699
CC[C@H](C)[C@H](NC(=O)[C@H](CO)NC(=O)[C@H](Cc1ccc(O)cc1)NC(=O)[C@H](CC(=O)O)NC(=O)[C@H](CO)NC(=O)[C@@H](NC(=O)[C@H](Cc1ccccc1)NC(=O)[C@@H](NC(=O)CNC(=O)[C@H](CCC(=O)O)NC(=O)[C@@H](C)NC(=O)[C@@H](N)Cc1ccc(O)cc1)[C@@H](C)O)[C@@H](C)CC)C(=O)N[C@@H](CC(C)C)C(=O)N[C@@H](CC(C)C)C(=O)N[C@@H](CC(=O)O)C(=O)N[C@@H](CCCCN)C(=O)N[C@@H](CCCCNC(=O)COCCOCCNC(=O)COCCOCCNC(=O)CC[C@H](NC(=O)CCCCCCCCCCCCCCCCC(=O)O)C(=O)O)C(=O)N[C@@H](C)C(=O)N[C@@H](CCC(N)=O)C(=O)NC(C)(C)C(=O)N[C@@H](CC(=O)O)C(=O)N[C@@H](Cc1ccccc1)C(=O)N[C@H](C(=O)N[C@@H](CC(N)=O)C(=O)N[C@@H](Cc1c[nH]c2ccccc12)C(=O)N[C@@H](CC(C)C)C(=O)N[C@@H](CC(C)C)C(=O)N[C@@H](C)C(=O)NCC(=O)NCC(=O)N1CCC[C@H]1C(=O)N[C@@H](CO)C(=O)N[C@@H](CO)C(=O)NCC(=O)N[C@@H](C)C(=O)N1CCC[C@H]1C(=O)N1CCC[C@H]1C(=O)N1CCC[C@H]1C(=O)N[C@@H](CO)C(N)=O)C(C)C [Example 19] (H-Y[dA]EGTFISDYSILLDKK([AEEA-AEEA-γGlu-C18 diacid])AQ[Aib]DFVNWLLAGGPSSGAPPPS-NH2)	> 5000	> 5000	0.00992
CC[C@H](C)[C@H](NC(=O)[C@H](CO)NC(=O)[C@H](Cc1ccc(O)cc1)NC(=O)[C@H](CC(=O)O)NC(=O)[C@H](CO)NC(=O)[C@@H](NC(=O)[C@](C)(Cc1ccccc1F)NC(=O)[C@@H](NC(=O)CNC(=O)[C@H](CCC(=O)O)NC(=O)C(C)(C)NC(=O)[C@@H](N)Cc1ccc(O)cc1)[C@@H](C)O)[C@@H](C)CC)C(=O)N[C@@H](C)C(=O)N[C@@H](CC(C)C)C(=O)N[C@@H](CC(=O)O)C(=O)N[C@@H](CCCCN)C(=O)N[C@H](C(=O)N[C@@H](Cc1c[nH]cn1)C(=O)N[C@@H](CCC(N)=O)C(=O)NC(C)(C)C(=O)N[C@@H](CC(=O)O)C(=O)N[C@@H](Cc1ccccc1)C(=O)N[C@H](C(=O)N[C@@H](CCC(=O)O)C(=O)N[C@@H](Cc1ccncc1)C(=O)N[C@@H](CCCCNC(=O)COCCOCCNC(=O)COCCOCCNC(=O)CC[C@H](NC(=O)CCCCCCCCCCCCCCCCCCC(=O)O)C(=O)O)C(=O)N[C@@H](CC(C)C)C(=O)N[C@@H](CCC(=O)O)C(=O)N[C@@H](C)C(=O)NCC(=O)N1CCC[C@H]1C(=O)N[C@@H](CO)C(=O)N[C@@H](CO)C(=O)NCC(=O)N[C@@H](C)C(=O)N1CCC[C@H]1C(=O)N1CCC[C@H]1C(=O)N1CCC[C@H]1C(=O)N[C@@H](CO)C(N)=O)C(C)C)[C@@H](C)CC [Example 113] (H-Y[Aib]EGT[αMePhe(2-F)]ISDYSIALDKIHQ[Aib]DFVE[4Pal]K([AEEA-AEEA-γGlu-C20 diacid])LEAGPSSGAPPPS-NH2)	> 5000	> 5000	0.0142
CC[C@H](C)[C@H](NC(=O)[C@H](Cc1ccccc1)NC(=O)[C@@H](NC(=O)CNC(=O)[C@H](CCC(=O)O)NC(=O)C(C)(C)NC(=O)[C@@H](N)Cc1ccc(O)cc1)[C@@H](C)O)C(=O)N[C@@H](CO)C(=O)N[C@@H](CC(=O)O)C(=O)N[C@@H](Cc1ccc(O)cc1)C(=O)N[C@@H](CO)C(=O)N[C@H](C(=O)N[C@@](C)(CC(C)C)C(=O)N[C@@H](CC(C)C)C(=O)N[C@@H](CC(=O)O)C(=O)N[C@@H](CCCCN)C(=O)N[C@@H](CCCCNC(=O)COCCOCCNC(=O)COCCOCCNC(=O)CC[C@H](NC(=O)CCCCCCCCCCCCCCCCCCC(=O)O)C(=O)O)C(=O)N[C@@H](Cc1c[nH]cn1)C(=O)N[C@@H](CCC(N)=O)C(=O)NC(C)(C)C(=O)N[C@@H](CC(=O)O)C(=O)N[C@@H](Cc1ccccc1)C(=O)N[C@H](C(=O)N[C@@H](CCC(=O)O)C(=O)N[C@@H](Cc1ccncc1)C(=O)N[C@@H](CC(C)C)C(=O)N[C@@H](CC(C)C)C(=O)N[C@@H](C)C(=O)N[C@@H](CCC(N)=O)C(=O)NCC(=O)N1CCC[C@H]1C(=O)N[C@@H](CO)C(=O)N[C@@H](CO)C(=O)NCC(=O)N[C@@H](C)C(=O)N1CCC[C@H]1C(=O)N1CCC[C@H]1C(=O)N1CCC[C@H]1C(=O)N[C@@H](CO)C(N)=O)C(C)C)[C@@H](C)CC [Example 79] (H-Y[Aib]EGTFISDYSI[αMeL]LDKK([AEEA-AEEA-γGlu-C20 diacid])HQ[Aib]DFVE[4Pal]LLAQGPSSGAPPPS-NH2)	> 5000	> 5000	0.0316
